Tests used:
[1] = system: Gibco hiPSCs; experiment: LPM differentiation assay (FOXF1 high content imaging), Gibco hiPSCs; settings: Homo sapiens, 48 h, read-out: IC50 (±SEM) in LPM differentiation assay
Protocol: (§8) hiPSCs (Gibco or XCL-1 clones) were grown in mTeSR-1 on Matrigel, passaged into small clumps with Versene (4.5 min under normal culture conditions), counted as a single-cell suspension as described above, and seeded as small clumps at approximately 10,000 cells/well (30,000 cells/cm^2, ~15% confluence) in 100 µL mTeSR1 on Matrigel-coated µClear® 96-well plates (Greiner) for 1 d under normal culture conditions. On the day after seeding, the medium was replaced with 100 µL/well of mTeSR-1 (control) or APEL2 + GSKi containing either DMSO or diluted compounds (for a final DMSO concentration of 0.2%). The same conditions were replenished the following day for a total of 2 d of differentiation, and the following day (3 d after seeding), the medium was aspirated, and hiPSCs were fixed in 10% NBF for 15 min at room temperature.
(§9) Immunofluorescence staining was carried out by fixing/permeabilizing cells overnight in blocking buffer containing 3% BSA (Sigma) in DPBS-T, which contains DPBS + Ca^2+//Mg^2+ with 0.3% Triton-X100 (Sigma). Fixed and permeabilized cells were incubated in primary antibodies diluted (as noted in Table 1) in antibody buffer, consisting of 1% BSA in DPBS-T, overnight at 4 °C.
(§10) Cells were washed in blocking buffer for >6 hours at 4 °C and subsequently incubated in secondary antibody diluted in antibody buffer overnight at 4 °C. Secondary antibodies were washed out in antibody buffer for >4 h at 4 °C, and hiPSCs were counterstained with DAPI (Fisher) at 10 µg/mL in DPBS-T for 2 h. hiPSCs were washed in DPBS-T for >2 h at 4 °C, and immediately before imaging, the DPBS-T was replaced with DPBS. […] Chemical dose-response experiments and experiments examining the time-course of marker expression during LPM differentiation were imaged at 10X magnification using the Cellomics ArrayScan or CellInsight Cx7 LZR High Content Screening Platform and HCS Studio Cell Analysis Software (Thermo Fisher). An artificial threshold was uniformly applied to all images to generate the percentage of DAPI+ nuclei that stained positively for FOXF1 or NANOG. Thresholding for FOXF1 and T was performed relative to undiffer-entiated hiPSCs, and thresholding for SALL4 and OCT4 was performed relative to a non-expressing cell type (human primary endothelial cells). Settings for image acquisition and processing were uniformly applied between XCL-1 clones. […] Experiments were repeated in quadruplicate unless otherwise stated, and data are presented as mean ± SEM. Nonlinear regression analysis was performed using the 4-parameter [inhibitor]-vs-response curve fitting algorithm in Prism (GraphPad).

[2] = molecular target: T1, SALL4^G416A (Homo sapiens, UniProt Q9UJQ4, G416A); experiment: SALL4 MFI by high content imaging, XCL-1 SALL4^G416A hiPSCs; assay type: cell-based; settings: SALL4^G416A hiPSC clone, 8 h of treatment
T1 construct: parental hiPSCs were engineered to express a homozygous G416A mutation in the endogenous SALL4 locus; endogenous in cells; host or cells: XCL-1 SALL4^G416A hiPSC clone (1E6), CRISPR/Cas9 knock-in at the endogenous locus
Excerpt: (§1) High content imaging analysis of SALL4 immunofluorescence with DAPI counterstaining in hiPSCs. […] Data represent the mean +/− SEM from 2 independent experiments.

[3] = system: XCL-1 hiPSC SALL4^G416A; experiment: LPM differentiation assay (FOXF1 high content imaging), XCL-1 SALL4^G416A clone; settings: for IC50: Homo sapiens, 48 h, read-out: IC50 (±SEM) in LPM differentiation assay
Protocol: as §8, §9, §10
In addition, XCL-1 hiPSCs were engineered with CRISPR/Cas9 to express a homozygous SALL4 G416A mutation (hereafter referred to as the SALL4^G416A clone), and the homozygous SALL4 G416A mutation was confirmed by next-generation sequencing (Supplementary Fig. 2).

[4] = molecular target: T2, SALL4 (Homo sapiens, UniProt Q96SW2+Q9UJQ4); experiment: SALL4 MFI by high content imaging, XCL-1 SALL4 mock hiPSCs; assay type: cell-based; settings: SALL4 mock control hiPSCs, 8 h of treatment
T2 construct: Unmodified Gibco hiPSCs were either differentiated in APEL2 + GSKi or maintained in mTeSR1, and SALL4 nuclear protein expression was monitored; endogenous in cells; host or cells: Gibco hiPSCs; XCL-1 SALL4 mock hiPSC clone
Excerpt: as §1

[5] = system: XCL-1 hiPSC CRBN KO/KI; experiment: cells; assay type: cell-based; settings: Homo sapiens, 72 h; XCL-1 CRBN KO/KI; 3 d differentiation; read-out: IC50 (±SEM) in SOX17 differentiation assay
Protocol: (§2) The assay was carried out as previously described with continuous dosing of chemical for 3 total days of differentiation. SOX17 staining and DAPI counter-staining were carried out as described, and assays were imaged via high content imaging. […]
(§3) Supplementary Figure 7. Dose-response characterization of the influence […]
(§4) of XCL-1 clones. High content imaging analysis of XCL-1 hiPSC clones that were differentiated for 3 days in the presence of compound and subsequently stained for SOX17 and counter-stained with DAPI. Untreated DMSO control is omitted. Data represent the mean +/- SEM %SOX17 cells
(§5) (relative to control) from 4 independent experiments. Nonlinear regression […]
(§6) variable slope plotting tool in GraphPad Prism. A-C: Dose-response […]
(§7) in cereblon mock (hollow circles) or CRBN KO/KI (red filled circles) clones. D- […]

[6] = system: XCL-1 hiPSC SALL4 Mock; experiment: cells; assay type: cell-based; settings: Homo sapiens, 72 h; XCL-1 SALL4 Mock; 3 d differentiation; read-out: IC50 (±SEM) in SOX17 differentiation assay
Protocol: as §2, §3, §4, §5, §6, §7

[7] = system: XCL-1 hiPSC CRBN Mock; experiment: cells; assay type: cell-based; settings: Homo sapiens, 72 h; XCL-1 CRBN Mock; 3 d differentiation; read-out: IC50 (±SEM) in SOX17 differentiation assay
Protocol: as §2, §3, §4, §5, §6, §7

[8] = system: XCL-1 hiPSC SALL4^G416A; experiment: cells; assay type: cell-based; settings: Homo sapiens, 72 h; XCL-1 SALL4^G416A; 3 d differentiation; read-out: IC50 (±SEM) in SOX17 differentiation assay
Protocol: as §2, §3, §4, §5, §6, §7

[9] = system: XCL-1 hiPSC CRBN Mock; experiment: LPM differentiation assay (FOXF1 high content imaging), XCL-1 CRBN Mock clone; assay type: cell-based; settings: Homo sapiens, 48 h, % FOXF1+ cells after 2 d in APEL2+GSKi, read-out: IC50 (±SEM) in LPM differentiation assay
Protocol: On the day after seeding, the medium was replaced with 100 µL/well of mTeSR-1 (control) or APEL2 + GSKi containing either DMSO or diluted compounds (for a final DMSO concentration of 0.2%). The same conditions were replenished the following day for a total of 2 d of differentiation, and the following day (3 d after seeding), the medium was aspirated, and hiPSCs were fixed in 10% NBF for 15 min at room temperature.
as §9, §10

[10] = molecular target: T3, human SALL4 (Homo sapiens, UniProt Q9UJQ4); experiment: Immunoblot of SALL4 degradation in Lenti-x 293 CRBN-/- cells expressing human CRBN variants; assay type: cell-based
T3 construct: expressed in transfected cells; host or cells: Lenti-x 293 CRBN CRISPR KO (CRBN-/-) cells stably expressing human SALL4, transiently transfected with FLAG-CRBN variants
Excerpt: SALL4 were transiently transfected with vectors expressing GFP or human CRBN variants and treated with
CRBN-/- cells transfected with empty vector were used as a negative control. The cells were then lysed and
characterized by immunoblotting analysis for SALL4, ZFP91, GFP, CRBN, and β-actin.
CRBN CRISPR KO (CRBN -/-) cells were maintained in Dulbecco’s Modified Eagle’s medium (DMEM;
Invitrogen) supplemented with 10% fetal bovine serum (FBS; Invitrogen). All cell lines were confirmed
mycoplasma-negative using the MycoAlert Mycoplasma Detection Kit (Lonza).
CRBN-/- cells stably expressing human SALL4 was transiently transfected with 4 µg of pcDNA3-GFP, pcDNA3-
FLAG-CRBN WT (isoform 1),pcDNA3-FLAG-CRBN E377V (isoform 1) or pcDNA3-FLAG-CRBN V388I (isoform
Cells were then harvested and lysed, and
whole cell extract was subjected to immunoblotting analysis. Cells were washed with ice-cold 1X PBS and
lysed in 50mM Tris-HCl [pH 7.6], 150 mM NaCl, 1% Triton X-100, and 1x Complete ULTRA protease inhibitor
cocktail and PhosSTOP phosphatase inhibitor cocktail. Whole cell extracts were collected after
centrifugation at top speed for 10 minutes, resolved by sodium dodecyl sulfate polyacrylamide gel
electrophoresis, transferred onto a nitrocellulose membrane using the Turboblot system (Bio-Rad), and
probed with the indicated primary antibodies. Bound antibodies were detected with IRDye®-680 or -800 […]

[11] = molecular target: T2, SALL4; experiment: SALL4 nuclear protein expression (MFI) by high content imaging, Gibco hiPSCs; assay type: cell-based
Excerpt: as §1

[12] = system: XCL-1 hiPSC CRBN KO/KI; experiment: LPM differentiation assay (FOXF1 high content imaging), XCL-1 CRBN KO/KI clone; assay type: cell-based, human; settings: for IC50: Homo sapiens, 48 h, XCL-1 CRBN KO/KI, % FOXF1+ cells after 2 d in APEL2+GSKi, read-out: IC50 (±SEM) in LPM differentiation assay
Protocol: On the day after seeding, the medium was replaced with 100 µL/well of mTeSR-1 (control) or APEL2 + GSKi containing either DMSO or diluted compounds (for a final DMSO concentration of 0.2%). The same conditions were replenished the following day for a total of 2 d of differentiation, and the following day (3 d after seeding), the medium was aspirated, and hiPSCs were fixed in 10% NBF for 15 min at room temperature. For time-course experiments, cells were fixed at the specified intervals after the start of LPM differentiation.
as §9
Cells were washed in blocking buffer for >6 hours at 4 °C and subsequently incubated in secondary antibody diluted in antibody buffer overnight at 4 °C. Secondary antibodies were washed out in antibody buffer for >4 h at 4 °C, and hiPSCs were counterstained with DAPI (Fisher) at 10 µg/mL in DPBS-T for 2 h. hiPSCs were washed in DPBS-T for >2 h at 4 °C, and immediately before imaging, the DPBS-T was replaced with DPBS. Initial characterization of LPM differentiation by immunofluorescence was carried out using the A1R confocal microscope (Nikon) equipped with 10X objective, and automated object analysis was carried out using NIS Elements v5 software (Nikon). Chemical dose-response experiments and experiments examining the time-course of marker expression during LPM differentiation were imaged at 10X magnification using the Cellomics ArrayScan or CellInsight Cx7 LZR High Content Screening Platform and HCS Studio Cell Analysis Software (Thermo Fisher). An artificial threshold was uniformly applied to all images to generate the percentage of DAPI+ nuclei that stained positively for FOXF1 or NANOG. Thresholding for FOXF1 and T was performed relative to undiffer-entiated hiPSCs, and thresholding for SALL4 and OCT4 was performed relative to a non-expressing cell type (human primary endothelial cells). Settings for image acquisition and processing were uniformly applied between XCL-1 clones. The capacity of all XCL-1 clones and Gibco hiPSCs to undergo LPM differentiation in the high content format was assessed by FOXF1 and NANOG immunostaining. […] Experiments were repeated in quadruplicate unless otherwise stated, and data are presented as mean ± SEM. Nonlinear regression analysis was performed using the 4-parameter [inhibitor]-vs-response curve fitting algorithm in Prism (GraphPad).
Using CRISPR/Cas9-mediated gene editing, both CRBN alleles were knocked out in XCL-1 hiPSCs cells, followed by the insertion at the AAVS1 locus of a transgene encoding human CRBN with E377V and V388I mutations (clone hereafter referred to as CRBN KO/KI).

[13] = system: XCL-1 hiPSC SALL4 Mock; experiment: LPM differentiation assay (FOXF1 high content imaging), XCL-1 SALL4 Mock clone; settings: Homo sapiens, 48 h, read-out: IC50 (±SEM) in LPM differentiation assay
Protocol: as §8, §9, §10

T2 sequence (Q9UJQ4 whole entry): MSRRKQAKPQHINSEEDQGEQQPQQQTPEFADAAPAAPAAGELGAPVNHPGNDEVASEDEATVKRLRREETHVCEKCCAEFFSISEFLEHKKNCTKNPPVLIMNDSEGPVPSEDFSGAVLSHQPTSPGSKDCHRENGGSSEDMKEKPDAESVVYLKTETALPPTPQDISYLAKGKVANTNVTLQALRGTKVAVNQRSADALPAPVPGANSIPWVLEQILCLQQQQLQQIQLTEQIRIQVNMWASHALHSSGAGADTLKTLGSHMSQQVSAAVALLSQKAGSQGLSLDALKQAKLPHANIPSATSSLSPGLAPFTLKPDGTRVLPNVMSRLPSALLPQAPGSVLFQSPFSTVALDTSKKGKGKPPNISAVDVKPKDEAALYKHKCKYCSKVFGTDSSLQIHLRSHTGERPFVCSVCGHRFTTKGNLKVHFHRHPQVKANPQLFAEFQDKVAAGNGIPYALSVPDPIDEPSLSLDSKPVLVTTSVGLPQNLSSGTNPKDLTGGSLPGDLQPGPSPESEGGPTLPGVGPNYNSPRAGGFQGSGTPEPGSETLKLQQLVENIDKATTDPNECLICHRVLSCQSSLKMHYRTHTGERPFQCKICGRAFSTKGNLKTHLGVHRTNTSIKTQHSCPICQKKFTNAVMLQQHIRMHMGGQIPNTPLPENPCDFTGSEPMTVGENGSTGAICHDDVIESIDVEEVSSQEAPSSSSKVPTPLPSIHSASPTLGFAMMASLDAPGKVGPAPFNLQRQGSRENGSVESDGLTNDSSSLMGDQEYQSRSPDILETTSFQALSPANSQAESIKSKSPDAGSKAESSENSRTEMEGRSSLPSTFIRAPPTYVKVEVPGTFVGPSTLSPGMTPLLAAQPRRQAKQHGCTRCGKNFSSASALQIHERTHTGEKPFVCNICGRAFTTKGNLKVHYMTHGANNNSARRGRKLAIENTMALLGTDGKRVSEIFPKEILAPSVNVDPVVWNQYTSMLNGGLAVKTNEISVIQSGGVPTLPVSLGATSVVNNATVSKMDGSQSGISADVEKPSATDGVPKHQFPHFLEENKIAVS
T2 sequence (Q96SW2 whole entry): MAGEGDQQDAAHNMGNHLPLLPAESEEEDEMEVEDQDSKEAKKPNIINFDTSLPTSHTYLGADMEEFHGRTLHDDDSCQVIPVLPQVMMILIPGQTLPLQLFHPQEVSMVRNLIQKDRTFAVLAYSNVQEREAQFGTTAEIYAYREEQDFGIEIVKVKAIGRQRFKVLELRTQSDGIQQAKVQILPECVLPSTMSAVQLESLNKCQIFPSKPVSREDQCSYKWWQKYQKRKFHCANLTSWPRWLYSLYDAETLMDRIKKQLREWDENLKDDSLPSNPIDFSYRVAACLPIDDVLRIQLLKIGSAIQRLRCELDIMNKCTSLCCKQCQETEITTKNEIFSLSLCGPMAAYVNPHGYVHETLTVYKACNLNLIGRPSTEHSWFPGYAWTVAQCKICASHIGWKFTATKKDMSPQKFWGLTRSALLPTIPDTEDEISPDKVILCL
T2 sequence (Q16531 whole entry partner): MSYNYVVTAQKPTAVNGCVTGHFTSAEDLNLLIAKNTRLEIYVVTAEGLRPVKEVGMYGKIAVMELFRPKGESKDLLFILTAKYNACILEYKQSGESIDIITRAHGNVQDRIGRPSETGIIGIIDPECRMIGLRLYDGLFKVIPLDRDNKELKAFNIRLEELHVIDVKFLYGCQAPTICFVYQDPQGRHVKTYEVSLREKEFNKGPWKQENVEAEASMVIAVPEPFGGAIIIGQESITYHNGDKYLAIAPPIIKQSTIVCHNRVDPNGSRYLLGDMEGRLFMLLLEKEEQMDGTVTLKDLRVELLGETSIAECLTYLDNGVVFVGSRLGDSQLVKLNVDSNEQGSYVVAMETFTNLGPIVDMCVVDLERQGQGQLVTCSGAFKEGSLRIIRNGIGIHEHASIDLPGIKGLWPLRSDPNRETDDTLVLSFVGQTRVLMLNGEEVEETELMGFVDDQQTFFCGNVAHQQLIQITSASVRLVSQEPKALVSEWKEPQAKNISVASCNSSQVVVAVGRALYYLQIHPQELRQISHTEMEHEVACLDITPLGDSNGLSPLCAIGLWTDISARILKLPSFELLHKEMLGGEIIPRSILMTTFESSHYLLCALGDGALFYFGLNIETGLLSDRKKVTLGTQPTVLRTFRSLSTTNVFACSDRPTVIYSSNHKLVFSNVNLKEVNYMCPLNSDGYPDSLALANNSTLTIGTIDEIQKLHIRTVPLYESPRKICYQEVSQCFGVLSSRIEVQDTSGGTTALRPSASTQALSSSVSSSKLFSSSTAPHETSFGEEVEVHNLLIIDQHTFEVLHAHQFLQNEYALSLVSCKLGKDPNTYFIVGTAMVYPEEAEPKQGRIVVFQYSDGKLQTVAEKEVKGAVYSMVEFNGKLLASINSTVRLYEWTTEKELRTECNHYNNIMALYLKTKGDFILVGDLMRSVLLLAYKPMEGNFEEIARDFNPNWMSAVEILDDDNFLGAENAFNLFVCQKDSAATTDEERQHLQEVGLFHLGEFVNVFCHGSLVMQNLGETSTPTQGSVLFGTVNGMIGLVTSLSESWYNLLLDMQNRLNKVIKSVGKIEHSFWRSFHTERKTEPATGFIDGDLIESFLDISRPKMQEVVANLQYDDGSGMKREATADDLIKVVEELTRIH
T1 sequence (Q96SW2 whole entry partner): as the sequence (Q96SW2 whole entry) above
T1 sequence (Q16531 whole entry partner): as the sequence (Q16531 whole entry partner) above
T1 sequence (Q9UJQ4 whole entry G416A): as the sequence (Q9UJQ4 whole entry) above, with G416A counted along it
T3 sequence (Q96SW2 whole entry partner): as the sequence (Q96SW2 whole entry) above
T3 sequence (Q16531 whole entry partner): as the sequence (Q16531 whole entry partner) above
T3 sequence (Q9UJQ4 whole entry): as the sequence (Q9UJQ4 whole entry) above

With `Nc1cccc2c1C(=O)N(C1CCC(=O)NC1=O)C2=O` (stereo not shown) [Pomalidomide, pomalidomide] the IC50 [1] was 10 ± 10 nM, the “effect on SALL4 MFI” value [2] was “unchanged” and the IC50 [3] was > 50000 nM. For the same molecule, the “inhibition of LPM differentiation at the two highest concentrations tested” value ([3]; SALL4^G416A clone) was “modest inhibition of LPM differentiation”, the “effect on SALL4 MFI” value [4] was “potently reduced SALL4 MFI” and the IC50 [5] was > 50000 nM. The IC50 [6] was 10 ± 10 nM, the IC50 [7] was 20 ± 20 nM and the IC50 [8] was > 50000 nM. For the same molecule, the IC50 [9] was 20 ± 10 nM, the “SALL4 degradation in human cells expressing CRBN with the V388I mutation” value [10] was “failed to induce SALL4 degradation” and the “time-course of SALL4 MFI” value ([11]; 20 µM, Gibco hiPSCs in mTeSR1 or APEL2+GSKi, 2, 8 and 24 h after dosing) was “rapid decline in SALL4 MFI 2 h after dosing”. For the same molecule, the “magnitude of the decrease in SALL4 MFI” value ([11]; Gibco hiPSCs, 8 h of treatment, dose-response) was ~ 55%, the “inhibition of LPM differentiation at the highest concentration tested” value ([12]; 50 µM, CRBN KO/KI clone) was “inhibited LPM differentiation albeit not to the same magnitude as control hiPSCs” and the IC50 [12] was > 50000 nM. It also gave an IC50 [13] of 90 ± 90 nM.

In the case of `Nc1cccc2c1CN(C1CCC(=O)NC1=O)C2=O` (stereo not shown) [Lenalidomide, lenalidomide], the IC50 [1] is reported as 160 ± 80 nM.

`NC(=O)c1ccc(-c2nc(-c3ccc4c(c3)OCO4)c(-c3ccccn3)[nH]2)cc1` [SB431542] was tested, and the IC50 [1] was 2760 ± 5580 nM, the IC50 [3] was 510 ± 100 nM and the IC50 [9] was 650 ± 180 nM. The IC50 [12] was 790 ± 400 nM and the IC50 [13] was 630 ± 170 nM.

From PMC7046148 (Scientific Reports, 2020)
